Values of other authors, collected in PMC5983471 (PLoS ONE, 2018).
Read-outs that look alike come from different tables or passages of the source.

Columns and labels:
[1] = design: method as in FDA prescribing information; conditions: ref FDA prescribing information, cited from earlier work
[2] = design: method as in FDA prescribing information; conditions: healthy volunteers; ref FDA prescribing information; cited from earlier work
[3] = design: method as in FDA prescribing information; conditions: single oral 14C-enzalutamide 160 mg; ref FDA prescribing information; cited from earlier work
[4] = system: plasma proteins, primarily albumin; design: method as in FDA prescribing information; conditions: ref FDA prescribing information; cited from earlier work
CRPC [5] = conditions: cited from earlier work
[6] = system: castration-resistant prostate cancer; conditions: ref 59 (S1 Protocol), cited from earlier work
human CYP2C8 and CYP3A4 = system: human CYP2C8 and CYP3A4; design: method as in FDA prescribing information; conditions: in vitro; ref FDA prescribing information; cited from earlier work
CYP3A4 [7] = system: CYP3A4; design: method as in FDA prescribing information; conditions: healthy volunteers; ref FDA prescribing information; cited from earlier work
[8] = ref FDA prescribing information; cited from earlier work
CYP2C8 = system: CYP2C8; design: method as in FDA prescribing information; conditions: healthy volunteers; ref FDA prescribing information; cited from earlier work
CRPC [9] = conditions: cited from earlier work; remark: listed apart in the source
CYP2C9 = system: CYP2C9; design: method as in FDA prescribing information; conditions: ref FDA prescribing information, cited from earlier work
CYP2C19 = system: CYP2C19; design: method as in FDA prescribing information; conditions: ref FDA prescribing information, cited from earlier work
CYP3A4 [10] = system: CYP3A4; design: method as in FDA prescribing information; conditions: ref FDA prescribing information, cited from earlier work
[11] = AFFIRM, Enzalutamide (N=800), ref Scher et al, 2012
[12] = PREVAIL, Enzalutamide (N=871), ref Beer et al, 2014

CC1(C)C(=O)N(c2ccc(C#N)c(C(F)(F)F)c2)C(=S)N1c1ccc(C(N)=O)c(F)c1 [N-desmethyl enzalutamide]
plasma mean Cmax at steady state ([1]; 160 mg daily oral): 12700 ng/mL | plasma mean predose trough at steady state ([1]; 160 mg daily oral): 13.0 µg/mL | effect of a high-fat meal on AUC [2]: did not alter | % of dose recovered in feces as this species [3]: 1% | bound to plasma proteins [4]: 95%

CNC(=O)c1ccc(N2C(=S)N(c3ccc(C#N)c(C(F)(F)F)c3)C(=O)C2(C)C)cc1F [enzalutamide, 4-(3-[4-cyano-3-(trifluoromethyl)phenyl]-5,5dimethyl-4-oxo-2-sulfanylideneimidazolidin-1-yl)-2-fluoro-N-methylbenzamide]
HR for death vs placebo (CRPC [5]; 95% CI 0.53 to 0.75, P<0.001, ref 4 (S1 Protocol)): 0.63 | Abnormal liver function testing, Grade 3-4 (%) (CRPC [5]; [11]): 0.4% | Arthralgias / musculoskeletal pain, Grade 3-4 (%) (CRPC [5]; [11]): 1% | Diarrhea, Grade 3-4 (%) (CRPC [5]; [11]): 1% | Fatigue, Grade 3-4 (%) (CRPC [5]; [11]): 6% | Headache, Grade 3-4 (%) (CRPC [5]; [11]): 0.8% | Hot flashes, Grade 3-4 (%) (CRPC [5]; [11]): 0% | Seizure, Grade 3-4 (%) (CRPC [5]; [11]): 0.6% | median OS (CRPC [5]; enzalutamide 160 mg daily (N=800), ref 4 (S1 Protocol)): 18.4 months | rate of grade 3 or higher AEs (CRPC [5]; enzalutamide 160 mg daily, ref 4 (S1 Protocol)): 45.3% | PSA response rate (≥50% PSA declines) ([6]; 30 mg to 600 mg by mouth daily, 78 out of 140 subjects): 56% | patients who discontinued treatment for an AE ([6]; daily dose ≤240 mg): 1/87 | patients who discontinued treatment for an AE ([6]; doses ≥360 mg): 7/53 | grade 3-4 AE: anemia ([6]; overall): 3% | grade 3-4 AE: arthralgia ([6]; overall): 2% | grade 3-4 AE: asthenia ([6]; overall): 2% | grade 3-4 AE: fatigue ([6]; overall): 11% | grade 3-4 AE: seizures ([6]; overall): 2% | mild (grade 2) AE: anorexia ([6]; overall): 5.7% | mild (grade 2) AE: back pain ([6]; overall): 5.7% | mild (grade 2) AE: dyspnea ([6]; overall): 7.9% | mild (grade 2) AE: fatigue ([6]; overall): 27.1% | mild (grade 2) AE: nausea ([6]; overall): 8.6% | maximum tolerated dose [6]: 240 mg daily | plasma mean Cmax at steady state ([1]; 160 mg daily oral): 16600 ng/mL | mean apparent volume of distribution (V/F) ([1]; single oral dose, patients, 29% CV): 110 L | mean apparent clearance (CL/F) ([1]; single oral dose, patients): 0.56 L/h | enzymes responsible for the metabolism (human CYP2C8 and CYP3A4): CYP2C8 and CYP3A4 | increase of composite AUC of enzalutamide plus N-desmethyl enzalutamide by itraconazole (CYP3A4 [7]): 1.3 fold | effect of a high-fat meal on AUC [2]: did not alter | solubility in water [8]: practically insoluble | effect of gemfibrozil on composite AUC of enzalutamide plus N-desmethyl enzalutamide (CYP2C8): increased | HR for death vs placebo (CRPC [9]; 95% CI 0.60 to 0.84, P<0.0001, ref 1 (S1 Protocol)): 0.706 | Abnormal liver function testing, Grade 3-4 (%) (CRPC [9]; [12]): 0.2% | Arthralgias / musculoskeletal pain, Grade 3-4 (%) (CRPC [9]; [12]): 1.4% | Back pain, Grade 3-4 (%) (CRPC [9]; [12]): 2.5% | Constipation, Grade 3-4 (%) (CRPC [9]; [12]): 0.5% | Fatigue, Grade 3-4 (%) (CRPC [9]; [12]): 1.8% | Hypertension, Grade 3-4 (%) (CRPC [9]; [12]): 6.8% | Seizure, Grade 3-4 (%) (CRPC [9]; [12]): 0% | median OS (CRPC [9]; enzalutamide 160 mg daily (N=871), ref 1 (S1 Protocol)): 32.4 months | effect on plasma exposure to warfarin (CYP2C9 substrate) (CYP2C9; at steady state): reduced | CYP2C9 inducer strength (CYP2C9; in humans): moderate | effect on plasma exposure to omeprazole (CYP2C19 substrate) (CYP2C19; at steady state): reduced | CYP2C19 inducer strength (CYP2C19; in humans): moderate | effect on plasma exposure to midazolam (CYP3A4 substrate) (CYP3A4 [10]; at steady state): reduced | CYP3A4 inducer strength (CYP3A4 [10]; in humans): strong
